Assay results: publication PMC10877733, “Discovery and Characterization of VU0542270, the First Selective Inhibitor of Vascular Kir6.1/SUR2B KATP Channels” (Molecular Pharmacology, 2024)
pIC50: −log10 of the molar value. Like-named read-outs stand apart in the source and are kept apart here.

Legend:
Kir6.1/SUR2B = molecular target: T1, Kir6.1/SUR2B (Homo sapiens, UniProt O60706); assay: Thallium flux assay of Kir6.1/SUR2B in HEK293 cells; format: cell-based
T1 construct: expressed in transfected cells; also transiently transfected HEK293T
T1 sequence (O60706 1-1549 isoform O60706-2, species assumed): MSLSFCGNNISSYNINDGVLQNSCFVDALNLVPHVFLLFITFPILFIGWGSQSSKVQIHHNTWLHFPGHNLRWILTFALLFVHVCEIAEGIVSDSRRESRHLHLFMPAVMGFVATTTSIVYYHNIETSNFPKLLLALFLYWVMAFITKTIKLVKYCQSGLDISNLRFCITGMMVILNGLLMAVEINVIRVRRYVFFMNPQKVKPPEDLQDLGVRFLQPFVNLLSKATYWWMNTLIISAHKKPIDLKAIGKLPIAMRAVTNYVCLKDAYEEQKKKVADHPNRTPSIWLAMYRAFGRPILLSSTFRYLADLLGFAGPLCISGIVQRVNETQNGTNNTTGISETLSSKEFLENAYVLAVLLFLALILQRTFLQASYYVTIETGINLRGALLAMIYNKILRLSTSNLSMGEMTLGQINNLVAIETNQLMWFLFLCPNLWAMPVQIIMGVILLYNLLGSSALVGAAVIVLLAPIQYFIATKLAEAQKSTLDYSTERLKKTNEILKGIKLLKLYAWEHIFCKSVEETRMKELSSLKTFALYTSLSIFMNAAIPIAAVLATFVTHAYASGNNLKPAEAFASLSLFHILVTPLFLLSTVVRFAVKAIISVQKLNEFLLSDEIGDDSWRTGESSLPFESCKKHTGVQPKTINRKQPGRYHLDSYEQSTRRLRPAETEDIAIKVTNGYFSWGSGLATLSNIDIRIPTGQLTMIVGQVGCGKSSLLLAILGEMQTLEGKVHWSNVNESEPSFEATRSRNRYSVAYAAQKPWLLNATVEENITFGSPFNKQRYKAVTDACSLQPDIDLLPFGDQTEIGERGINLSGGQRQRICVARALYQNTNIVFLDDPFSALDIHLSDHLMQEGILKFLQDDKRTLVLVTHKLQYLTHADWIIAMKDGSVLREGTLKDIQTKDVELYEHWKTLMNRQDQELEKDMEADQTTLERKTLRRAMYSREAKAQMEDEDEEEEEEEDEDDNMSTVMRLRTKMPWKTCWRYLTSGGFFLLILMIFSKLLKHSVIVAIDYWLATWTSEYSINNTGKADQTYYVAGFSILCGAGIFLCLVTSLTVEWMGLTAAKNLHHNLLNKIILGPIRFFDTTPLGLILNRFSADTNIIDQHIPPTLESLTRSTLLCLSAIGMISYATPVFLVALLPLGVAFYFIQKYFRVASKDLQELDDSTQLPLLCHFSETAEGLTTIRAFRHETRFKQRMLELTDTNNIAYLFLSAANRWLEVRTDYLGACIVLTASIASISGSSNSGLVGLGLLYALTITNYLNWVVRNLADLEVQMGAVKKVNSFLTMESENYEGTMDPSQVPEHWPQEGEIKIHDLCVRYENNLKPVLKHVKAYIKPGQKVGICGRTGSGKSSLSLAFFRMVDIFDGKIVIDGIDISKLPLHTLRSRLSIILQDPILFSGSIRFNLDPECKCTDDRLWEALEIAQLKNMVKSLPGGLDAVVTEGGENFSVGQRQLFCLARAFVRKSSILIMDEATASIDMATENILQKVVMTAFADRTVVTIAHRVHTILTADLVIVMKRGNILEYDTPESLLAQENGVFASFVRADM
T1 sequence (Q15842 whole entry partner, species assumed): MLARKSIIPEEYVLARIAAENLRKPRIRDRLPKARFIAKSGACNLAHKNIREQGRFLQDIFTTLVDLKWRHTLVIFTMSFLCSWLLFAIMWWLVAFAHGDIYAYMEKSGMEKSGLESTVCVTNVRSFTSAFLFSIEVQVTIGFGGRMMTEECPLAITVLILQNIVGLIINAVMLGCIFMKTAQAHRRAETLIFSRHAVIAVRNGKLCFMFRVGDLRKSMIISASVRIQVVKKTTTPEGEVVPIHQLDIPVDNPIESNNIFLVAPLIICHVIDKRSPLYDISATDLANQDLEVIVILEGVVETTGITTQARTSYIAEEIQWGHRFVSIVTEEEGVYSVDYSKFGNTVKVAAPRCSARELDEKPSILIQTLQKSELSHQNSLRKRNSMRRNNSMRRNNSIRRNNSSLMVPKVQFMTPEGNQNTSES
Description: The pcDNA3.1-SUR2B plasmid was generously provided by Dr. Colin Nichols (Washington University). […] Stably transfected tetracycline-regulated expression human embryonic kidney-293 (T-Rex-HEK293) cells expressing both plasmids were generated by cotransfecting cells with Lipofectamine LTX followed by antibiotic selection and clonal selection using the thallium flux assay described below. […] The cell culture media contained Dulbecco's modified Eagle's medium (Gibco, 11965-092) supplied with heat-inactivated FBS (bio-techne, Minneapolis, MN […],10%), Blasticidine HCl (Gibco, A11139-03, 10 ug/mL), Penicillin-Streptomycin (Gibco, 15140-122, 2 mM), G418 Sulfate (CORNING, Corning, NY, 30-234-CR, 1 mg/mL), and Hygromycin B (Invitrogen, Carlsbad, CA, 10687-010, 250 ug/mL). For selectivity assays, HEK293T cells were cotransfected with Kir6.x and SURX with Lipofectamine LTX and incubated for 48 hours before thallium flux assays. […] [[…] et al., 2019]). […] Dye-loaded cells were washed with assay buffer and transferred to a Panoptic Kinetic Imaging Plate Reader (Wavefront Bioscience, Franklin, TN). Control and test compound treatments were for 4 minutes prior to adding 0.5 mM chloride-free thallium stimulus buffer (Ion Bioscience) to initiate thallium flux. […] Selectivity assays against other Kir channels were performed essentially as described previously ([[…] et al., 2018]; [[…] al., 2022]). […] Data were acquired using Panoptic Software, Waveguide (Wavefront Biosciences). Raw fluorescence values were imported for analysis into custom software (VICB, Vanderbilt University). Fluorescence versus time values for each well were normalized to the initial fluorescence value [F/F0]. […] CRC data were plotted in GraphPad Prism (GraphPad Software, San Diego, CA) and fitted with a four-parameter logistic model to determine IC50 values for rank-ordering hit potency.

Kir4.1/Kir5.1 = molecular target: T2, Kir4.1/Kir5.1 (Homo sapiens, UniProt P78508+Q9NPI9); assay: Thallium flux selectivity assay Kir4.1/Kir5.1; format: cell-based
T2 construct: expressed in transfected cells
T2 sequence (P78508 1-379): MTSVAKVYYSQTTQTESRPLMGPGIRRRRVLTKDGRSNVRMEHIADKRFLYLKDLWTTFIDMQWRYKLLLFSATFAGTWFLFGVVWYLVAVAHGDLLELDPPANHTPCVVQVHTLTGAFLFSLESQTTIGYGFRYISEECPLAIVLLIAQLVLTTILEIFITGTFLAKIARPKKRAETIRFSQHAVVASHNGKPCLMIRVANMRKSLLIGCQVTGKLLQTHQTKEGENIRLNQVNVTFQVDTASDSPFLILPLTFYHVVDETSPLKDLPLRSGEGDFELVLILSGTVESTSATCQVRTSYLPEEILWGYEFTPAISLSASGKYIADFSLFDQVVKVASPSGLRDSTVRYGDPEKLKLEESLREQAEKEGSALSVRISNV
T2 sequence (Q9NPI9 1-418): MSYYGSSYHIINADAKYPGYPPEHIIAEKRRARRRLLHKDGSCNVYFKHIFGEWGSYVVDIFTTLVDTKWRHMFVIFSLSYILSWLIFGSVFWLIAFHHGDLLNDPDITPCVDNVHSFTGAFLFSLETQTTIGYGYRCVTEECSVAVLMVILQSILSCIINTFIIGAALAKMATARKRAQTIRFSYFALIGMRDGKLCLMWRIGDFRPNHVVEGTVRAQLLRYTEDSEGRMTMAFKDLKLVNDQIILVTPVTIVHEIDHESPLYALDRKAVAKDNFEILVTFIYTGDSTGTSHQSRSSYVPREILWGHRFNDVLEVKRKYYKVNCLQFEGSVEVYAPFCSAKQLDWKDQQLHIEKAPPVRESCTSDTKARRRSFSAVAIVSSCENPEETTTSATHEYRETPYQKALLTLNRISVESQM
Procedure: Quantitative thallium flux assays of Kir6.1/SUR2B activity were performed essentially as described previously for Kir6.2/SUR1 ([Raphemot et al., 2014]; [Kharade et al., 2019]). Stable T-Rex-HEK293-Kir6.1/SUR2B cells or transiently transfected HEK293T cells were plated in polyamine-coated, clear-bottomed, black-walled 384-well plates and were cultured (37°C/5% CO2) overnight in Dulbecco’s modified Eagle’s medium (Gibco, Carlsbad, CA, 11995-065) containing 10% FBS (2 mM Penicillin-Streptomycin). The following day, cells were washed with assay buffer (i.e., Hanks’ balanced salt solution/20 mM HEPES) and loaded for 1 hour with thallium sensor dye Brilliant Thallium (Ion Bioscience, San Marcos, TX) at room temperature. Dye-loaded cells were washed with assay buffer and transferred to a Panoptic Kinetic Imaging Plate Reader (Wavefront Bioscience, Franklin, TN). Control and test compound treatments were for 4 minutes prior to adding 0.5 mM chloride-free thallium stimulus buffer (Ion Bioscience) to initiate thallium flux. […] Selectivity assays against other Kir channels were performed essentially as described previously ([Kharade et al., 2018]; [McClenahan et al., 2022]).

[1] = Plasma binding by equilibrium dialysis, rat; format: in vitro ADME; details: equilibrium dialysis 6 hours 37°C, read-out: Fu, plasma (rat)
Procedure: Determination of VU0542270 fraction unbound (fu) in plasma from mouse, rat, and human was conducted in vitro via equilibrium dialysis using high-throughput dialysis (HTD) membrane plates. Dialysis membranes (four paired strips per HTD assay) were hydrated as described by the manufacturer and inserted into the HTD plate, which was assembled and prepared for sample addition by the dispensing of blank buffer [Delbecco’s phosphate buffered saline (DPBS), 100 µL/well] into the “top half” of each membrane-split well. VU0542270 was diluted into plasma from each species (5 µM final concentration), which was aliquoted in triplicate to the “bottom half” of the prepared HTD plate wells. The HTD plate was sealed and incubated for 6 hours at 37°C. Following incubation, each well (both top and bottom halves) was transferred (20 µL) to the corresponding well of a 96-shallow-well (V-bottom) plate. […]
fu was calculated as (analyte to IS mass spectrometry (MS) peak area ratio from Trans-buffer side)/(analyte to IS MS peak area ratio from Cis-plasma side). Mean values for each species were calculated from three replicates.

pIC50 (Kir6.1/SUR2B; Table 1 selectivity profile, read-out: IC50 Kir6.1/SUR2B): 6.96
pIC50 (Kir6.1/SUR2B; pinacidil-activated, read-out: Kir6.1/SUR2B IC50): 6.98
pIC50 (Kir6.1/SUR2B; transfected HEK-293 cells, pinacidil activation, read-out: Kir6.1/SUR2B IC50 (Fig. 4C)): 6.89
pIC50 (Kir4.1/Kir5.1): < 4.52
fraction unbound at 6 h, 5 µM [1]: 0.01
Compound: Cc1nc(-c2cccs2)sc1CNC(=O)Nc1cccs1 [VU0542270]
